Results taken from US10478464B2, “Compositions and methods of use” (priority 2009, dated 2019).

What was measured:
[1] = test system: leukemia cell lines (CCRF-CEM, K-562, SR, MOLT-4, RPMI-8226, HL-60(TB)); test: NCI 60 human tumor cell line screen (MTT), leukemia lines; assay type: cell-based; conditions: 10 μM
[2] = test system: Hep3B liver cancer cell line; test: Cell survival, colorimetric MTT assay, Hep3B; assay type: cell-based; conditions: 100 μM, 72 hours
Description: (§1) 2) Against the liver cancer cell lines: The effect of the racemic mixture of 8-HHA and that of the individual enantiomers, namely S and R enantiomers, were examined on survival of PLC/PRF/5 (also referred to as “PLC-5” or “PLC5”), Hep3B and SNU449 (also referred to as “SNU”) liver cancer cell lines. The cell viability was examined in the exponential growth phase with 100 μM of 8-HHA for 72 hours using colorimetric MTT assay. In separate assays, PLC-5 cells were treated with different concentrations of S-enantiomer of 8-HHA ranging from 20-100 μM for 72 hours.

[3] = test system: SNU449 liver cancer cell line; test: Cell survival, colorimetric MTT assay, SNU449; assay type: cell-based; conditions: 100 μM, 72 hours
Description: as §1

[4] = Maximal tolerated dose (MTD), single IV bolus; assay type: in vivo
Description: The purpose of this study was to determine the maximum tolerated dose of 8-HHA following intravenous (IV) administration in ICR mice. A racemic mixture of 8-HHA, placebo, and vehicle were administered to 20 ICR female mice with weight of 25-30 grams, respectively. The 8-HHA was formulated in nanolipid at concentration of 0, 10, 20 and 40 mg/ml. There were 4 animals per group and they were injected with 0, 10, 20 and 40 mg/kg dose of 8-HHA Mice were given a single bolus dose via the tail vein according to group assignment. One week after dosing mice were sacrificed. Daily clinical observations were performed 15 minutes and 1 hour post dose. The mice were observed daily for any adverse effects until necropsy on study day 8. Body weights were recorded for all the mice prior to test substance administration, and every other day throughout the test period. This entire study was performed at Toxikon Corporation, Bedford, Mass.

[5] = Water solubility (statement); assay type: physicochemical
[6] = test system: PLC5 cells a Hepatocellular Carcinoma cell line; test: Liver xenograft mouse model (PLC5); assay type: in vivo, BALB/c nu/nu mice
Excerpt: The purpose of this study was to determine anti tumor efficacy of 8-HHA in liver cancer using PLC5 cells a Hepatocellular Carcinoma cell line. The tumor growth and animal survival were considered as primary end point.
Animals and care: Thirty BABL/c nude, non-pregnant and nulliparous female mice that are 5-6 weeks old and weighing 16-20 gms were used in this study. BALB/c nu/nu mice were used because they have been historically used in xenograft studies to test anti-tumor efficacy of drug candidates. Mice were acclimatized for minimum 5 days, under same conditions as for the actual test. Mice were housed at room temperature 68±5° F. with room Relative Humidity of 30-70%, air Exchanges per Hour of a minimum of 10 changes per hour, lights exposure of 12-hour light/dark cycle, full spectrum fluorescent lights. The mice were housed in groups in ventilated micro-isolator cages made up of polycarbonate. The mice were using autoclaved laboratory grade bedding and were provided ad libitum with irradiated pellets and autoclaved water. There were no known contaminants present in the feed, water, or bedding expected to interfere with the test data. The laboratory and animal rooms were maintained as limited-access facilities.
Route of injection and dose: 8-HHA was administered through intraperitoneal (IP) injection. […] For this study, 2 doses-10 mg/kg and 100 mg/kg were used.
Tumor Induction: The cell line PLC5 were cultured according to recommended specifications at Vanas Oncology, in which cells were grown and maintained in RPMI medium containing 10% fetal bovine serum, 2 mM L-Glutamine, 100 units/ml of Streptomycin and 100 units/ml of Penicilin. Cells were trypizinized and counted using the Trypan-blue viability test using a hemocytometer. Cell counts in quadrants of the hemocytometer were converted to a cells/mL value, which will enable isolation of the appropriate number of cells per mouse. Each mouse was inoculated subcutaneously in the right flank region with 0.2 mL of a 50% RPMI/50% Matrigel™ mixture containing a suspension of tumor cells (5×10^6 cells/mouse). Tumors were observed twice weekly until well established. Tumor volume was calculated using the formula: Tumor weight (mg)=(a×b^2/2) where ‘b’ is the smallest diameter and ‘a’ is the largest diameter in millimeters.
Allocation of Animals: Once the established tumors reach a mean calculated volume of approximately 50-100 mg, the mice were randomized, using appropriate software, into treatment groups in order to reduce the variability of tumor sizes per group.
Pre Dose Procedure: Acclimated animals were weighed and observed for clinical signs of toxicity prior to dosing on Day 1.
The first day of dosing is Day 1. On Day 1,8-HHA, and vehicle injections were administered according to the study design in Table 7 below.
Post Dose Procedure: Following treatment, tumor and mouse body weight measurements were recorded twice weekly and gross observation was made at least once daily. Mice with tumors that are not palpable was considered complete regressions. Percentage of mice mortality and time of death will be recorded for every group in the study. Animals may be defined as moribund and sacrificed if one or more of the following criteria are met: • Loss of body weight of 20% or greater in a 1 week period. • Mice that inhibit normal physiological function such as eating, drinking, mobility, and ability to urinate and/or defecate. • Tumors that exceed a maximum size of 2000 mg as measured by calipers. • Ulcerated tumors, or tumors that bleed or produce exudates. • Prolonged, excessive diarrhea leading to excessive weight loss (>20%). • Persistent wheezing and respiratory distress. • Prolonged or excessive pain or distress as defined by clinical observations such as: prostration, hunched posture, paralysis/paresis, distended abdomen, ulcerations, abscesses, seizures, and/or hemorrhages.

[7] = test system: colorectal cancer cell lines (HCT-116, HCT-15, KM12); test: NCI 60 human tumor cell line screen (MTT), colorectal lines; conditions: 10 μM; three out of 7 lines
Description: The screening is a microplate cytotoxicity assays based on a simple colorimetric (MTT) assay which relies on the metabolic reduction of a tetrazolium dye in viable cells to a colored formazan product. A modified protocol was used for the screening of the compound and measures the inhibition of growth of various tumor cell lines. The 8-HHA tested in this assay was at the concentration of 10 μM.

Compound: CCCCCCCCC(O)CCCCCCC(=O)O (racemic) [Sample 8-HHA, 8-hydroxy-palmitic acid]
- suppressed growth of leukemia cell lines [1]: 40-96%
- reduced the survival of Hep3B cell line by [2]: 25%
- effect on survival of SNU cell line [3]: no major effect
- tolerability / clinical abnormalities ([4]; 10 mg/kg and 20 mg/kg IV): did not demonstrate any clinical abnormalities
- mice that died shortly after being dosed ([4]; high dose 40 mg/kg IV, 4 animals per group): Two
- MTD at 8 days ([4]; mouse, in vivo, ICR female mice, single IV bolus, nanolipid formulation, read-out: maximum tolerated dose): 20 mg/kg
- body weight at day 6 and 8 ([4]; single IV bolus): did not vary from pre dose weight
- water solubility [5]: poorly water soluble
- tumor volume decrease compared to the control group ([6]; T1 10 mg/Kg, day 4): 44.5%
- tumor volume decrease compared to the control group ([6]; T1 10 mg/Kg, day 9): 49.8%
- tumor volume decrease compared to the control group ([6]; T1 10 mg/Kg, day 11): 72.3%
- tumor volume decrease compared to the control group ([6]; T1 10 mg/Kg, day 16): 77.7%
- tumor volume decrease compared to the control group ([6]; T1 10 mg/Kg, day 18): 78.4%
- tumor volume decrease compared to the control group ([6]; T2 100 mg/Kg, day 4): 56.3%
- tumor volume decrease compared to the control group ([6]; T2 100 mg/Kg, day 9): 61.1%
- tumor volume decrease compared to the control group ([6]; T2 100 mg/Kg, day 11): 81.1%
- tumor volume decrease compared to the control group ([6]; T2 100 mg/Kg, day 16): 87.9%
- tumor volume decrease compared to the control group ([6]; T2 100 mg/Kg, day 18): 88.3%
- tumor growth inhibition, in words ([6]; both T1 (10 mg/Kg) and T2 (100 mg/Kg)): significantly inhibited tumor growth in mice from day 4
- growth suppression of colorectal cancer cell lines, in words [7]: moderate evidence of growth suppression
